Results as given in ChEMBL document CHEMBL1122452, “Mitomycin C analogues with secondary amines at position 7” (J Med Chem, 1983).

What was measured:
P388 [1] = assay: Leukopenia % change in WBC at optimal dose on 3rd day.; assay type: functional, Mus musculus
P388 [2] = assay: Optimal dose required for antitumor activity against P-388 murine leukemia cells in mice.; assay type: functional, Mus musculus
[3] = E1/2 value related to the saturated calomal electrode.; assay type: ADME; design: unit not given here
P388 [4] = assay: Maximum % T/C against P-388 murine leukemia cells in mice.; assay type: functional, Mus musculus
P388 [5] = assay: Maximum % T/C with mitomycin C against P-388 murine leukemia cells in mice.; assay type: functional, Mus musculus
P388 [6] = assay: Minimum effective dose required for antitumor activity against P-388 murine leukemia cells in mice.; assay type: functional; conditions: Mus musculus, read-out: MED
B16 [7] = assay: Tumor free survivors on 62nd day after ip administration of a dose of 3 mg/kg/day in B-16 melanoma in mice; assay type: functional, Mus musculus; conditions: route intraperitoneal
B16 [8] = assay: Average weight change after ip administration of a dose of 5 mg/kg/day inB-16 melanoma in mice; assay type: functional, Mus musculus; conditions: route intraperitoneal
B16 [9] = assay: Average weight change after ip administration of a dose of 3 mg/kg/day in B-16 melanoma in mice; assay type: functional, Mus musculus; conditions: route intraperitoneal
B16 [10] = assay: Median survival time (% T/C) after ip administration of a dose of 2 mg/kg/day in B-16 melanoma in mice; assay type: functional, Mus musculus; conditions: route intraperitoneal
B16 [11] = assay: Median survival time (% T/C) after ip administration of a dose of 3 mg/kg/day in B-16 melanoma in mice; assay type: functional, Mus musculus; conditions: route intraperitoneal
B16 [12] = assay: Tumor free survivors on 62nd day after ip administration of a dose of 2 mg/kg/day in B-16 melanoma in mice; out of 10; assay type: functional, Mus musculus; conditions: route intraperitoneal
B16 [13] = assay: Average weight change after ip administration of a dose of 2 mg/kg/day in B-16 melanoma in mice; assay type: functional, Mus musculus; conditions: route intraperitoneal

With `COC12[C@@H]3N[C@@H]3CN1C1=C(C(=O)C(N3CCCC(O)C3)=C(C)C1=O)[C@@H]2COC(N)=O` (stereo not given in full) the “Change in WBC” value (P388 [1]) was 55%, the Dose (P388 [2]) was 12.8 mg/kg and the E1/2 [3] was 0.26. For the same compound, the T/C (P388 [4]) was 250%, the T/C (P388 [5]) was 161% and the minimal effective dose (P388 [6]) was 0.2 mg/kg.
In the case of `COC12[C@@H]3N[C@@H]3CN1C1=C(C(=O)C(N3CCSC3)=C(C)C1=O)[C@@H]2COC(N)=O` (stereo not given in full), the “Change in WBC” value (P388 [1]) is reported as 69%, the Dose (P388 [2]) is reported as 25.6 mg/kg and the E1/2 [3] is reported as 0.39. For the same compound, the T/C (P388 [4]) was 222%, the T/C (P388 [5]) was 183% and the minimal effective dose (P388 [6]) was 0.2 mg/kg.
Work on `COC12[C@@H]3N[C@@H]3CN1C1=C(C(=O)C(N3CC3C(N)=O)=C(C)C1=O)[C@@H]2COC(N)=O` (stereo not given in full) yielded a Dose (P388 [2]) of 6.4 mg/kg, a T/C (P388 [4]) of 206% and a T/C (P388 [5]) of 233%. The minimal effective dose (P388 [6]) was 0.8 mg/kg.
For `COC12[C@@H]3N[C@@H]3CN1C1=C(C(=O)C(N3CCOCC3)=C(C)C1=O)[C@@H]2COC(N)=O` (stereo not given in full), the “Change in WBC” value (P388 [1]) was 82%, the Dose (P388 [2]) was 25.6 mg/kg and the E1/2 [3] was 0.39. For the same compound, the T/C (P388 [4]) was 271%, the T/C (P388 [5]) was 224% and the minimal effective dose (P388 [6]) was 0.4 mg/kg.
Work on `COC12[C@@H]3N[C@@H]3CN1C1=C(C(=O)C(N3CCNCC3)=C(C)C1=O)[C@@H]2COC(N)=O` (stereo not given in full) yielded a Dose (P388 [2]) of 12.8 mg/kg, an E1/2 [3] of 0.26 and a T/C (P388 [4]) of 200%. The T/C (P388 [5]) was 288% and the minimal effective dose (P388 [6]) was 0.2 mg/kg.
`CCN(CC)C1=C(C)C(=O)C2=C(C1=O)[C@H](COC(N)=O)C1(OC)[C@@H]3N[C@@H]3CN21` (stereo not given in full) showed a Dose (P388 [2]) of 25.6 mg/kg, an E1/2 [3] of 0.26 and a T/C (P388 [4]) of 222%. It also gave a T/C (P388 [5]) of 211% and a minimal effective dose (P388 [6]) of 1.6 mg/kg.
With `COC12[C@@H]3N[C@@H]3CN1C1=C(C(=O)C(N3CC3C#N)=C(C)C1=O)[C@@H]2COC(N)=O` (stereo not given in full) the “Change in WBC” value (P388 [1]) was 2%, the Cures (B16 [7]) was 0 and the Average weight change (B16 [8]) was -1.3 g. For the same compound, the Average weight change (B16 [9]) was 0 g, the T/C (B16 [10]) was 307% and the Dose (P388 [2]) was 12.8 mg/kg. It also gave a T/C (B16 [11]) of 65%, an E1/2 [3] of 0.3 and a T/C (P388 [4]) of 339%. For the same compound, the T/C (P388 [5]) was 228%, the Cures (B16 [12]) was 5 and the minimal effective dose (P388 [6]) was 0.2 mg/kg. It also gave an Average weight change (B16 [13]) of 0 g.
In the case of `COC12[C@@H]3N[C@@H]3CN1C1=C(C(=O)C(N3CCCC3)=C(C)C1=O)[C@@H]2COC(N)=O` (stereo not given in full), the “Change in WBC” value (P388 [1]) is reported as 64%, the Dose (P388 [2]) is reported as 25.6 mg/kg and the E1/2 [3] is reported as 0.35. The T/C (P388 [4]) was greater than 333%, the T/C (P388 [5]) was 161% and the minimal effective dose (P388 [6]) was 0.4 mg/kg.
`CCOC(=O)C1CN1C1=C(C)C(=O)C2=C(C1=O)[C@H](COC(N)=O)C1(OC)[C@@H]3N[C@@H]3CN21` (stereo not given in full) gave a Dose (P388 [2]) of 12.8 mg/kg, a T/C (P388 [4]) of 133% and a T/C (P388 [5]) of 233%.
With `COC12[C@@H]3N[C@@H]3CN1C1=C(C(=O)C(N3CC3c3ccccc3)=C(C)C1=O)[C@@H]2COC(N)=O` (stereo not given in full) the “Change in WBC” value (P388 [1]) was 38%, the Dose (P388 [2]) was 3.2 mg/kg and the T/C (P388 [4]) was 311%. It also gave a T/C (P388 [5]) of 200% and a minimal effective dose (P388 [6]) of 0.2 mg/kg.
In the case of `COC12[C@@H]3N[C@@H]3CN1C1=C(C(=O)C(N3CC3)=C(C)C1=O)[C@@H]2COC(N)=O` (stereo not given in full), the “Change in WBC” value (P388 [1]) is reported as 11%, the Dose (P388 [2]) is reported as 1.6 mg/kg and the E1/2 [3] is reported as 0.31. The T/C (P388 [4]) was 266%, the T/C (P388 [5]) was 300% and the minimal effective dose (P388 [6]) was 0.025 mg/kg.
`COC(=O)C1CN1C1=C(C)C(=O)C2=C(C1=O)[C@H](COC(N)=O)C1(OC)[C@@H]3N[C@@H]3CN21` (stereo not given in full) gave a Dose (P388 [2]) of 6.4 mg/kg, a T/C (P388 [4]) of 147% and a T/C (P388 [5]) of 288%. For the same compound, the minimal effective dose (P388 [6]) was 1.6 mg/kg.
With `COC12[C@@H]3N[C@@H]3CN1C1=C(C(=O)C(N3CCC(N4CCCCC4)CC3)=C(C)C1=O)[C@@H]2COC(N)=O` (stereo not given in full) the “Change in WBC” value (P388 [1]) was 29%, the Dose (P388 [2]) was 12.8 mg/kg and the E1/2 [3] was 0.28. For the same compound, the T/C (P388 [4]) was 194%, the T/C (P388 [5]) was 200% and the minimal effective dose (P388 [6]) was 1.6 mg/kg.
